Experimental data as given in PubChem BioAssay AID1845209 (Molecular Pharmacology Branch, DTP, NCI, 2023).

Test system: NCI-H211 tumor spheroids, viability percent test/control
Assay: Anticancer human tumor NCI-H211 cell line growth inhibition;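 further: spheroids exposed to agents for seven days before readout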
Details: spheroids with HUVEC and MSC; for IC50: curve of first compound; for viability, T/C: stronger effect = lower value
Procedure, shortened: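 Complex spheroids of malignant cells with endothelial cells and mesenchymal stem cells; agents alone or combined, from near clinical Cmax (or 10 microM if unknown) down in half-log steps, 0.25% DMSO final.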

Question: How did the IC50 (second compound 30 pM) turn out when `COc1cc(C)[nH]c(=O)c1CN1CCc2c(Cl)cc(C(OC)C3COC3)c(Cl)c2C1=O` (stereo not given) + COc1cc2c(cc1O)CCNC21CSC2c3c(OC(C)=O)c(C)c4c(c3C(COC1=O)N1C(O)C3Cc5cc(C)c(OC)c(O)c5C(C21)N3C)OCO4 was run?
Answer: > 10000 nM

Question: And the IC50 (second compound 94.9 pM)?
Answer: < 31.6 nM

Question: And the IC50 (second compound 0.0003 µM)?
Answer: < 31.6 nM

Question: And the IC50 (second compound 0.000949 µM)?
Answer: < 31.6 nM

Question: And the IC50 (second compound 0.003 µM)?
Answer: < 31.6 nM

Question: And the viability, T/C (second compound 30 pM, first compound 0.0316 µM)?
Answer: 94.3%

Question: And the viability, T/C (second compound 30 pM, first compound 0.1 µM)?
Answer: 98.4%

Question: What about the viability, T/C (second compound 30 pM, first compound 0.316 µM) of the same compound?
Answer: 95%

Question: And the viability, T/C (second compound 30 pM, first compound 1 µM)?
Answer: 90.2%

Question: And the viability, T/C (second compound 30 pM, first compound 3.16 µM)?
Answer: 81.9%

Question: And the viability, T/C (second compound 30 pM, first compound 10 µM)?
Answer: 77.2%

Question: What about the viability, T/C (second compound 94.9 pM, first compound 0.0316 µM) of the same compound?
Answer: 13.8%

Question: And the viability, T/C (second compound 94.9 pM, first compound 0.1 µM)?
Answer: 22.7%

Question: And the viability, T/C (second compound 94.9 pM, first compound 0.316 µM)?
Answer: 22.8%

Question: What about the viability, T/C (second compound 94.9 pM, first compound 1 µM) of the same compound?
Answer: 16%

Question: And the viability, T/C (second compound 94.9 pM, first compound 3.16 µM)?
Answer: 10.4%

Question: What about the viability, T/C (second compound 94.9 pM, first compound 10 µM) of the same compound?
Answer: 5.32%

Question: And the viability, T/C (second compound 0.0003 µM, first compound 0.0316 µM)?
Answer: 0.73%

Question: And the viability, T/C (second compound 0.0003 µM, first compound 0.1 µM)?
Answer: 0.85%

Question: What about the viability, T/C (second compound 0.0003 µM, first compound 0.316 µM) of the same compound?
Answer: 0.77%

Question: What about the viability, T/C (second compound 0.0003 µM, first compound 1 µM) of the same compound?
Answer: 0.69%

Question: What about the viability, T/C (second compound 0.0003 µM, first compound 3.16 µM) of the same compound?
Answer: 0.78%

Question: What about the viability, T/C (second compound 0.0003 µM, first compound 10 µM) of the same compound?
Answer: 0.85%

Question: And the viability, T/C (second compound 0.000949 µM, first compound 0.0316 µM)?
Answer: 0.63%

Question: And the viability, T/C (second compound 0.000949 µM, first compound 0.1 µM)?
Answer: 0.69%

Question: And the viability, T/C (second compound 0.000949 µM, first compound 0.316 µM)?
Answer: 0.66%

Question: What about the viability, T/C (second compound 0.000949 µM, first compound 1 µM) of the same compound?
Answer: 1.2%

Question: And the viability, T/C (second compound 0.000949 µM, first compound 3.16 µM)?
Answer: 0.82%

Question: What about the viability, T/C (second compound 0.000949 µM, first compound 10 µM) of the same compound?
Answer: 0.76%

Question: And the viability, T/C (second compound 0.003 µM, first compound 0.0316 µM)?
Answer: 0.12%

Question: And the viability, T/C (second compound 0.003 µM, first compound 0.1 µM)?
Answer: 0.11%

Question: What about the viability, T/C (second compound 0.003 µM, first compound 0.316 µM) of the same compound?
Answer: 0.11%

Question: And the viability, T/C (second compound 0.003 µM, first compound 1 µM)?
Answer: 0.1%

Question: And the viability, T/C (second compound 0.003 µM, first compound 3.16 µM)?
Answer: 0.11%

Question: And the viability, T/C (second compound 0.003 µM, first compound 10 µM)?
Answer: 0.56%

Question: With `CNCc1ccc(-c2cc(-c3nc(-c4ccc(S(=O)(=O)C(C)C)cc4)cnc3N)on2)cc1` + CC[C@@]1(O)C(=O)OCc2c1cc1n(c2=O)Cc2cc3c(CN(C)C)c(O)ccc3nc2-1 as the compound, how does the IC50 (second compound 0.003 µM) read?
Answer: 9.61 nM

Question: What about the IC50 (second compound 0.00949 µM) of the same compound?
Answer: < 9.49 nM

Question: And the IC50 (second compound 0.03 µM)?
Answer: < 9.49 nM

Question: What about the IC50 (second compound 0.0949 µM) of the same compound?
Answer: < 9.49 nM

Question: And the IC50 (second compound 0.3 µM)?
Answer: < 9.49 nM

Question: What about the viability, T/C (second compound 0.003 µM, first compound 0.00949 µM) of the same compound?
Answer: 50.5%

Question: And the viability, T/C (second compound 0.003 µM, first compound 0.03 µM)?
Answer: 9.5%

Question: What about the viability, T/C (second compound 0.003 µM, first compound 0.0949 µM) of the same compound?
Answer: 0.85%

Question: What about the viability, T/C (second compound 0.003 µM, first compound 0.3 µM) of the same compound?
Answer: 0.92%

Question: And the viability, T/C (second compound 0.003 µM, first compound 0.949 µM)?
Answer: 0.05%

Question: And the viability, T/C (second compound 0.003 µM, first compound 3 µM)?
Answer: 0.11%

Question: And the viability, T/C (second compound 0.00949 µM, first compound 0.00949 µM)?
Answer: 3.19%

Question: What about the viability, T/C (second compound 0.00949 µM, first compound 0.03 µM) of the same compound?
Answer: 1.35%

Question: And the viability, T/C (second compound 0.00949 µM, first compound 0.0949 µM)?
Answer: 1.06%

Question: And the viability, T/C (second compound 0.00949 µM, first compound 0.3 µM)?
Answer: 1.09%

Question: And the viability, T/C (second compound 0.00949 µM, first compound 0.949 µM)?
Answer: 0.11%

Question: And the viability, T/C (second compound 0.00949 µM, first compound 3 µM)?
Answer: 0.11%

Question: And the viability, T/C (second compound 0.03 µM, first compound 0.00949 µM)?
Answer: 0.96%

Question: And the viability, T/C (second compound 0.03 µM, first compound 0.03 µM)?
Answer: 0.98%

Question: And the viability, T/C (second compound 0.03 µM, first compound 0.0949 µM)?
Answer: 0.97%

Question: And the viability, T/C (second compound 0.03 µM, first compound 0.3 µM)?
Answer: 1.07%

Question: And the viability, T/C (second compound 0.03 µM, first compound 0.949 µM)?
Answer: 0.14%

Question: What about the viability, T/C (second compound 0.03 µM, first compound 3 µM) of the same compound?
Answer: 0.11%

Question: And the viability, T/C (second compound 0.0949 µM, first compound 0.00949 µM)?
Answer: 1.04%

Question: What about the viability, T/C (second compound 0.0949 µM, first compound 0.03 µM) of the same compound?
Answer: 1.29%

Question: What about the viability, T/C (second compound 0.0949 µM, first compound 0.0949 µM) of the same compound?
Answer: 1.06%

Question: And the viability, T/C (second compound 0.0949 µM, first compound 0.3 µM)?
Answer: 0.67%

Question: What about the viability, T/C (second compound 0.0949 µM, first compound 0.949 µM) of the same compound?
Answer: 0.12%

Question: What about the viability, T/C (second compound 0.0949 µM, first compound 3 µM) of the same compound?
Answer: 0.13%

Question: What about the viability, T/C (second compound 0.3 µM, first compound 0.00949 µM) of the same compound?
Answer: 0.95%

Question: And the viability, T/C (second compound 0.3 µM, first compound 0.03 µM)?
Answer: 1.15%

Question: What about the viability, T/C (second compound 0.3 µM, first compound 0.0949 µM) of the same compound?
Answer: 1.37%

Question: What about the viability, T/C (second compound 0.3 µM, first compound 0.3 µM) of the same compound?
Answer: 0.82%

Question: What about the viability, T/C (second compound 0.3 µM, first compound 0.949 µM) of the same compound?
Answer: 0.21%

Question: And the viability, T/C (second compound 0.3 µM, first compound 3 µM)?
Answer: 0.18%
